We go through seven compounds from article PMC5845165, “Pharmacokinetic Study of 7 Compounds Following Oral Administration of Fructus Aurantii to Depressive Rats” (Frontiers in Pharmacology, 2018).

Data set [1] can be described thus: Pharmacokinetic study in plasma of acute depressive rats after oral ZQ extract (LC-MS/MS). The settings on record: oral ZQ extract 20 g/kg; for AUC / AUC(0-t) / Cmax / Tmax / half-life: Sprague-Dawley, rat; for AUC: AUC0-∞; for half-life: male, po, 20 g/kg. In kind it is in vivo, Sprague–Dawley rats. On the procedure:
(§1) Sample (200 μL) and 10 μL of mixed IS solution containing sulfamethoxazole (754 ng/mL) and honokiol (274 ng/mL) was added to Eppendorf tubes and extracted with 1 mL acetonitrile. The mixed solution was vortexed for 3 min and centrifuged at 10000 rpm for 10 min at 4°C to acquire the supernatant. The supernatant (800 μL) was moved to a clean Eppendorf tube, and then desiccated under a flow of nitrogen at 40°C. Finally, the residue was redissolved in 100 μL acetonitrile/water (90:10, v/v) with vortex-mixing for 3 min and centrifuged at 13000 rpm for 10 min. A 10 μL aliquot of the sample was injected into the LC/MS/MS system for analysis.
All of the rats were subjected to FST for 24 h before oral administration of the ZQ extract (20 g/kg). Plasma samples (about 0.5 mL) were gathered in a heparinized 1.5 mL Eppendorf tube from the venous plexus of the eye socket at 0.083, 0.25, 0.5, 0.75, 1.0, 1.5, 2.0, 3.0, 4.0, 6.0, 8.0, 12.0, and 24.0 h under anesthesia. Each sample was immediately centrifuged at 10000 rpm for 15 min to acquire the plasma. At last, the plasma was immediately placed at -80°C until measure.
All data were expressed as the mean ± SD. The plasma concentration of the 7 compounds during the experiment was calculated according to the daily calibration curve. The pharmacokinetic parameters, including Cmax (the peak drug plasma concentration), Tmax (the time to Cmax), AUC0-t (the area under the plasma concentration-time curve from 0 to time), AUC0-∞ (the area under the plasma concentration-time curve from 0 to time infinity), and t1/2 (the elimination half-life) were calculated by performing a non-compartment model using WinNonlin Professional Edition Version 2.1 (Pharsight Corporation, Sunnyvale, CA, United States). The immobile time in the FST test was evaluated by one-way ANOVA. Statistical significance was denoted at p < 0.05. Statistical analysis was operated by GraphPad Prism 5 software.

Data set [2] can be described thus: Stability of the analytes in rat plasma (QC samples). The format is in vitro ADME. The settings on record: deviation from nominal conc. On the procedure: The stabilities of the 7 analytes in rat plasma was evaluated by assaying six replicates of QC samples at low, middle, and high concentrations in practical experimental conditions: samples post-preparation stored in auto-sampler condition for 12 h, and storage at -80°C for 1 month. The freeze- thaw stability was determined after the experience of three freeze-thaw cycles (from -80°C to room temperature). Samples were identified as stable if the accuracy bias was within 15.0% of the nominal concentration.

The nature of data set [3]: Qualitative LC/MS-MS identification in hippocampus and cortex after oral ZQ extract. In kind it is in vivo, Sprague–Dawley rats. The conditions noted are these: acute depressive rats, 0.5 h after oral ZQ extract 20 g/kg. On the procedure:
To identify the main active compounds of ZQ in target tissue, six rats subjected to FST were sacrificed under anesthesia 0.5 h after oral administration of ZQ extract (20 g/kg), and then the hippocampal and cortex tissue was separated rapidly from the brain on an ice tray and stored at -80°C. All tissues (∼50.0 mg) were homogenized with 1.5 mL of ice-cold 0.9% saline.
as §1

Details of data set [4]: method as in Tong et al., 2012. The conditions noted are these: oral ZQ 3.2 g/kg, ref Tong et al., 2012; cited from earlier work.
[5] abbreviates: plasma, male SD rats subjected to FST, mean ± SD, n = 6.

As to `COc1ccc([C@@H]2CC(=O)c3c(O)cc(O[C@@H]4O[C@H](CO[C@@H]5O[C@@H](C)[C@H](O)[C@@H](O)[C@H]5O)[C@@H](O)[C@H](O)[C@H]4O)cc3O2)cc1O` [Hesperidin, hesperidin], in data set [1] (setting [5]), the AUC was found to be 179 ± 43.9 ng·h/mL, the AUC(0-t) is 136 ± 23.7 ng·h/mL, the concentration peaked (Cmax) at 46 ± 7.32 ng/mL and the Tmax stood at 0.42 ± 0.13 h. In addition, the half-life in data set [1] (setting [5]) is 2.93 ± 0.88 h. Also, in data set [2] (high QC level), the “RE, -80°C for 1 month” value worked out at 0.02%; the “RE, Room temperature for 12 h” value was determined as 4.88%; the “RE, Three freeze-thaw cycles” value is given as -1.62%. Further, in data set [2] (low QC level), the “RE, -80°C for 1 month” value came to 6.36%; the “RE, Room temperature for 12 h” value is -1.88%; the “RE, Three freeze-thaw cycles” value amounted to 4.08%. In data set [2] (middle QC level), the “RE, -80°C for 1 month” value was determined as 4.15%; the “RE, Room temperature for 12 h” value was found to be 0.91%; the “RE, Three freeze-thaw cycles” value was 5.80%. In addition, the “absorption into hippocampus and cortex (qualitative)” value in data set [3] is “absorbed into the hippocampus and cortex”.

`COc1ccc([C@@H]2CC(=O)c3c(O)cc(O[C@@H]4O[C@H](CO)[C@@H](O)[C@H](O)[C@H]4O[C@@H]4O[C@@H](C)[C@H](O)[C@@H](O)[C@H]4O)cc3O2)cc1O` [Neohesperidin, neohesperidin]: in data set [1] (setting [5]), the AUC worked out at 239 ± 95.6 ng·h/mL, the AUC(0-t) came to 234 ± 87.3 ng·h/mL, the Cmax came out at 90.8 ± 48.5 ng/mL and the Tmax was found to be 0.29 ± 0.1 h. The same compound showed a half-life in data set [1] (setting [5]) of 2.02 ± 0.77 h. In addition, in data set [2] (high QC level), the “RE, -80°C for 1 month” value was found to be 2.03%; the “RE, Room temperature for 12 h” value stood at 10.82%; the “RE, Three freeze-thaw cycles” value is -0.30%. Moreover, in data set [2] (low QC level), the “RE, -80°C for 1 month” value is 3.31%; the “RE, Room temperature for 12 h” value is recorded as -5.80%; the “RE, Three freeze-thaw cycles” value is listed as 7.23%. In addition, in data set [2] (middle QC level), the “RE, -80°C for 1 month” value is reported as 3.13%; the “RE, Room temperature for 12 h” value is 7.28%; the “RE, Three freeze-thaw cycles” value turned out to be 5.88%. Also, the “absorption into hippocampus and cortex (qualitative)” value in data set [3] was “absorbed into the hippocampus and cortex”. Besides, the “AUC0-∞ in healthy rats compared with this study” value in data set [4] is recorded as “higher than the data obtained in our experiment”.

In the case of `O=C1C[C@@H](c2ccc(O)cc2)Oc2cc(O)cc(O)c21` [Naringenin, naringenin], in data set [1] (setting [5]), the AUC came to 226 ± 64.9 ng·h/mL, the area under the curve AUC(0-t) was 188 ± 38.9 ng·h/mL, the Cmax was determined as 78.1 ± 22.2 ng/mL and the Tmax worked out at 0.42 ± 0.13 h. The half-life in data set [1] (setting [5]) is 4.37 ± 1.19 h. For the same compound, in data set [2] (high QC level), the “RE, -80°C for 1 month” value is recorded as 3.14%; the “RE, Room temperature for 12 h” value is given as -2.56%; the “RE, Three freeze-thaw cycles” value is given as -2.59%. For the same compound, in data set [2] (low QC level), the “RE, -80°C for 1 month” value was -7.39%; the “RE, Room temperature for 12 h” value amounted to 5.64%; the “RE, Three freeze-thaw cycles” value is on record as -8.95%. In data set [2] (middle QC level), the “RE, -80°C for 1 month” value is -6.00%; the “RE, Room temperature for 12 h” value worked out at 10.67%; the “RE, Three freeze-thaw cycles” value is given as -4.45%. Moreover, in data set [3], the “absorption into hippocampus and cortex (qualitative)” value was “absorbed into the hippocampus and cortex”. Also, the “AUC0-∞ in healthy rats compared with this study” value in data set [4] is “higher than the data obtained in our experiment”.

Regarding `COc1ccc2ccc(=O)oc2c1CC(O)C(C)(C)O` (centres unmarked) [Meranzin hydrate], in data set [1] (setting [5]), the AUC worked out at 1710 ± 350 ng·h/mL, the AUC(0-t) worked out at 1480 ± 259 ng·h/mL, the Cmax was 222 ± 53.9 ng/mL and the Tmax was 1.25 ± 0.42 h. In data set [1] (setting [5]), this compound displayed a half-life of more than 7.3 h and a T1/2 of 7.31 ± 1.51 h. In addition, the “AUC0-∞ relative to other flavonoids” value in data set [1] (depressive rats) is “at least fivefold higher”. Further, in data set [2] (high QC level), the “RE, -80°C for 1 month” value turned out to be 9.41%; the “RE, Room temperature for 12 h” value was 7.34%; the “RE, Three freeze-thaw cycles” value is on record as 3.48%. In addition, in data set [2] (low QC level), the “RE, -80°C for 1 month” value stood at 6.97%; the “RE, Room temperature for 12 h” value was determined as 11.26%; the “RE, Three freeze-thaw cycles” value was determined as 11.95%. In data set [2] (middle QC level), the “RE, -80°C for 1 month” value is 7.29%; the “RE, Room temperature for 12 h” value was determined as 2.66%; the “RE, Three freeze-thaw cycles” value is recorded as -13.99%. The “absorption into hippocampus and cortex (qualitative)” value in data set [3] is “absorbed into the hippocampus and cortex”.

As for `C[C@@H]1O[C@@H](O[C@H]2[C@H](Oc3cc(O)c4c(c3)O[C@H](c3ccc(O)cc3)CC4=O)O[C@H](CO)[C@@H](O)[C@@H]2O)[C@H](O)[C@H](O)[C@H]1O` [Naringin, naringin], in data set [1] (setting [5]), the AUC came out at 312 ± 89.5 ng·h/mL, the AUC(0-t) was 293 ± 92 ng·h/mL, the Cmax came to 104 ± 18.8 ng/mL and the Tmax came to 0.42 ± 0.13 h. The compound further had a half-life in data set [1] (setting [5]) of 1.67 ± 0.57 h. In data set [2] (high QC level), the “RE, -80°C for 1 month” value was found to be 4.57%; the “RE, Room temperature for 12 h” value amounted to 5.94%; the “RE, Three freeze-thaw cycles” value stood at 0.56%. In data set [2] (low QC level), the “RE, -80°C for 1 month” value is recorded as 12.29%; the “RE, Room temperature for 12 h” value turned out to be 5.84%; the “RE, Three freeze-thaw cycles” value is 9.33%. In data set [2] (middle QC level), the “RE, -80°C for 1 month” value is reported as 0.21%; the “RE, Room temperature for 12 h” value is 6.83%; the “RE, Three freeze-thaw cycles” value turned out to be 4.34%. For the same compound, in data set [3], the “absorption into hippocampus and cortex (qualitative)” value is “absorbed into the hippocampus and cortex”. For the same compound, in data set [4], the “AUC0-∞ in healthy rats compared with this study” value is on record as “higher than the data obtained in our experiment”.

With `C[C@@H]1O[C@@H](OC[C@H]2O[C@@H](Oc3cc(O)c4c(c3)O[C@H](c3ccc(O)cc3)CC4=O)[C@H](O)[C@@H](O)[C@@H]2O)[C@H](O)[C@H](O)[C@H]1O` [Narirutin, narirutin], in data set [1] (setting [5]), the AUC worked out at 44.9 ± 9.99 ng·h/mL, the AUC(0-t) amounted to 42.6 ± 9.64 ng·h/mL, the peak level (Cmax) was 31.1 ± 8.83 ng/mL and the Tmax came out at 0.33 ± 0.13 h. Also, the half-life in data set [1] (setting [5]) is 1.49 ± 0.42 h. Moreover, in data set [2] (high QC level), the “RE, -80°C for 1 month” value was determined as 3.03%; the “RE, Room temperature for 12 h” value stood at 5.53%; the “RE, Three freeze-thaw cycles” value is recorded as 7.94%. Moreover, in data set [2] (low QC level), the “RE, -80°C for 1 month” value amounted to 8.49%; the “RE, Room temperature for 12 h” value is given as 12.43%; the “RE, Three freeze-thaw cycles” value is 9.69%. In data set [2] (middle QC level), the “RE, -80°C for 1 month” value was determined as 7.57%; the “RE, Room temperature for 12 h” value is listed as 1.84%; the “RE, Three freeze-thaw cycles” value amounted to 8.89%. In addition, the “absorption into hippocampus and cortex (qualitative)” value in data set [3] was “absorbed into the hippocampus and cortex”.

Consider `COc1ccc(-c2cc(=O)c3c(OC)c(OC)c(OC)c(OC)c3o2)cc1OC` [Nobiletin, nobiletin], for which, in data set [1] (setting [5]), the AUC is 153 ± 40 ng·h/mL, the AUC(0-t) amounted to 151 ± 40.6 ng·h/mL, the Cmax is 53.9 ± 14.3 ng/mL and the Tmax was 0.38 ± 0.14 h. Moreover, the half-life in data set [1] (setting [5]) is 1.28 ± 0.87 h. In data set [2] (high QC level), the “RE, -80°C for 1 month” value is -1.14%; the “RE, Room temperature for 12 h” value was 4.48%; the “RE, Three freeze-thaw cycles” value is listed as -6.73%. In data set [2] (low QC level), the “RE, -80°C for 1 month” value was -9.94%; the “RE, Room temperature for 12 h” value is on record as -4.37%; the “RE, Three freeze-thaw cycles” value is -7.88%. Besides, in data set [2] (middle QC level), the “RE, -80°C for 1 month” value is given as -8.19%; the “RE, Room temperature for 12 h” value was found to be 5.03%; the “RE, Three freeze-thaw cycles” value is -7.62%. Also, the “absorption into hippocampus and cortex (qualitative)” value in data set [3] was “absorbed into the hippocampus and cortex”.

As usually defined, the AUC is the area under the concentration-time curve, a measure of exposure. The low end stands for less exposure, the high end for more exposure. Usually AUC(0-t) stands for the area under the concentration-time curve up to a stated or last time point. Lower therefore signals less exposure. One may read the Cmax as the highest concentration seen after dosing. In general, Tmax refers to the time from dosing to the highest level. By half-life is commonly meant the time needed for the level to fall by half in the phase considered. A higher half-life goes with slow loss.
